The subject of assay [1] is MG132-induced mutant SOD1 intracellular aggregation in PC12-SOD1^G85R YFP cells. The experiment in a line: Protection against MG132-induced mut-SOD1 intracellular aggregation (fluorescence microscopy). Format: cell-based. The following applies: PC12-SOD1^G85R YFP cells, 0.7 μM MG132, 72 h; Inactive = no decrease of aggregates at 10 μM vs vehicle.
Assay [2] deals with PC12-SOD1^G85R YFP cells co-treated with MG132. The experiment in a line: Viability screening against MG132-induced toxicity, CellTiter-Glo. It is filed as cell-based. The following applies: PC12-SOD1^G85R YFP cells co-treated with MG132 and the compounds; read-out: PC12-SOD1^G85R EC50, in vitro viability screening (protection against MG132-induced toxicity). On the procedure: The HepG2 and HEK293 cells were cultured in DMEM media supplemented with 10 % FBS (heat-inactivated), 1 % Pen-strep, and L-glutamine and incubated at 37 °C in humidified air with 5 % CO2 until 85–90 % confluency. The PC12 Tet-Off-SOD1^G85R YFP cells were maintained as described in 4.2. On the day before the experiments, the cells were transferred to white bottom 96 well plates (Greiner cat. 655,083) at a concentration of 50,000 cells/100 μL of media in each well and incubated overnight at 37 °C. Stock solutions of the compounds (30 mM) in DMSO were prepared and then diluted in media to obtain the six final working solutions starting at 30 μM, and serial dilutions were obtained with the lowest concentration at 0.25 μM. The media were removed and fresh media containing the compounds or the vehicle DMSO (0.1 % v/v) were transferred to the plates containing HepG2 and HEK293 cells and the plates were incubated for 24 or 48 h at 37 °C. The PC12 Tet-Off-SOD1^G85R YFP cells compound treatment was performed as described in section 4.2 and using a 9-point 2-fold serial dilution of the compounds starting at 15 μM and the lowest concentration at 0.05 μM. After incubation, the plates were cooled to room temperature and 25 μL of CellTiter-Glo® solution was added to each well. The plates were loaded into a BioTek Synergy H1 MD plate reader and shaken for 2 min, stabilized for 10 min without shaking, and then the luminescence values were read for each well (luminescence integration step 1 ms). Wells containing media with the vehicle DMSO with or without cells were used as controls to represent, respectively, the maximum viability and the lowest viability (background signal) for the cytotoxicity studies with HepG2 and HEK293 cell lines. The viability values for the assay performed with the PC12 Tet-Off-SOD1^G85R YFP cells were normalised for the vehicle (0.1 % DMSO) and (−)-MG-132 alone treatments, which represented respectively the […] viability for the assay. […]
Background: ATP-based viability assays read luminescence as a measure of living cells.

For `CC(C)(Oc1cc(C(F)(F)F)cc(C(F)(F)F)c1)C1CC(=O)CC(=O)C1` [Compound 20, 5-(2-(3,5-bis(trifluoromethyl)phenoxy)propan-2-yl)cyclohexane-1,3-dione], the EC50 in assay [1] was 2630 ± 270 nM; in assay [2], 2470 ± 150 nM.
As to `O=C1CC(=O)CC(/C=C/c2cc(C(F)(F)F)cc(C(F)(F)F)c2)C1` [Compound 6, (E)-5-(3,5-Bis(trifluoromethyl)styryl)cyclohexane-1,3-dione], the EC50 in assay [1] worked out at 2060 ± 240 nM; in assay [2], 1980 ± 250 nM.

By EC50 is commonly meant the concentration that produces a half-maximal response.
